Patent US20250257075A1, “MACROCYCLIC INHIBITORS OF KRAS FOR THE TREATMENT OF CANCER” (Hoffmann-La Roche Inc., priority 2022, published 2025)

What was measured:
[1] = system: NCI-H358 cells (KRAS G12C); assay: Cell viability assay, G12C; type: cell-based, human; details: Homo sapiens; NCI-H358, 72 hrs, Cell Counting Kit-8
How it was run: (§1)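 72-hr compound treatment, 0.5% DMSO final; NCI-H358 seeded 5,000 cells/well, AGS and SW620 2,000 cells/well. Endpoint: CCK-8, 2-hr development, OD450 minus OD650.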

AGS cells (KRAS G12D) = assay: Cell viability assay, G12D; type: cell-based, human; details: Homo sapiens, 72 hrs, Cell Counting Kit-8
How it was run: as §1

SW620 cells (KRAS G12V) = assay: Cell viability assay, G12V; type: cell-based, human; details: Homo sapiens, SW-620; SW620, 72 hrs, Cell Counting Kit-8
How it was run: as §1

KRAS G12C-BRAF complex [2] = target: T1, KRAS G12C-BRAF complex (Homo sapiens, UniProt P01116+P62937, G12C); assay: KRAS G12C-BRAF NanoBit assay in HEK293 cells; type: cell-based; details: HEK293 stable cell pool, 3 hours of incubation
T1 construct: expressed in transfected cells
T1 sequence (P01116 1-188 isoform P01116-2 G12C): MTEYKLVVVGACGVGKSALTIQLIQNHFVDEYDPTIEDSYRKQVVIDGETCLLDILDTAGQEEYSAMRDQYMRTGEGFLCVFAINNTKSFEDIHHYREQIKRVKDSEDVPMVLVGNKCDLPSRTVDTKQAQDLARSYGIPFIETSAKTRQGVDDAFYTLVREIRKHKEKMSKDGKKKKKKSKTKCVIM
T1 sequence (P62937 whole entry): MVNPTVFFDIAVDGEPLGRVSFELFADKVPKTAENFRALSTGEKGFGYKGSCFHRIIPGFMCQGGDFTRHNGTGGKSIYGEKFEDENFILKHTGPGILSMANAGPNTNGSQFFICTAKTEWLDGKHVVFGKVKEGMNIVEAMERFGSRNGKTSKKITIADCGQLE
How it was run: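 HEK293 stable pool co-expressing SmBiT-KRAS G12C and BRAF RBD-LgBiT, exposed 3 h to compounds (16-point 3-fold dilution, top final 30 μM). Luminescence was read 20 min after Nano-Glo Live Cell substrate addition. A decrease versus DMSO control indicates disruption of the complex.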

KRAS G12C-BRAF complex [3] = target: T1, KRAS G12C-BRAF complex; assay: KRAS-BRAF with CYPA (500 nM) interaction assay (TR-FRET), G12C; type: biochemical; details: 3 hours
Protocol: (§2) Kras-BRAF with CYPA (500 nM) Interaction Assay In this example, TR-FRET was also used to measure the compound or compound-CYPA dependent disruption of the KRAS G12C-BRAF complex. This protocol was also used to measure disruption of KRAS G12D or KRAS G12V binding to BRAF by a compound of the invention, respectively. […] TR-FRET signal was read on a […] microplate reader (Ex320 nm, Em 665/615 nm). Compounds that facilitate disruption of the KRAS-BRAF complex were identified as those eliciting a decrease in the TR-FRET ratio relative to DMSO control wells.

[4] = target: KRAS G12D binding to BRAF (Homo sapiens, UniProt P01116+P62937, G12D); assay: KRAS-BRAF with CYPA (500 nM) interaction assay (TR-FRET), G12D; type: biochemical; details: 3 hours
Chain of KRAS G12D binding to BRAF (P01116 1-188 isoform P01116-2 G12D): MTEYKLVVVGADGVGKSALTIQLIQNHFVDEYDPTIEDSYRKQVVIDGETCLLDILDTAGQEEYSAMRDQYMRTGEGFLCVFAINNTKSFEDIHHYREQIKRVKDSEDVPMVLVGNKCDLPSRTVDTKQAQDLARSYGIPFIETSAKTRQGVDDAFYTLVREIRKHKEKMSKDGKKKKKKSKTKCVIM
Chain of KRAS G12D binding to BRAF (P62937 whole entry): as the sequence (P62937 whole entry) above
Protocol: as §2

[5] = target: KRAS G12V binding to BRAF (Homo sapiens, UniProt P01116+P62937, G12V); assay: KRAS-BRAF with CYPA (500 nM) interaction assay (TR-FRET), G12V; type: biochemical; details: 3 hours
Chain of KRAS G12V binding to BRAF (P01116 1-188 isoform P01116-2 G12V): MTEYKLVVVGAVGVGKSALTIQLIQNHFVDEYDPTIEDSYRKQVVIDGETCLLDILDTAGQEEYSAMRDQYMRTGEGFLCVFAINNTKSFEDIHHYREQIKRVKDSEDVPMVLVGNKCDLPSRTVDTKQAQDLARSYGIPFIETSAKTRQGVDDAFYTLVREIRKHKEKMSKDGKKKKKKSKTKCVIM
Chain of KRAS G12V binding to BRAF (P62937 whole entry): as the sequence (P62937 whole entry) above
Protocol: as §2

[6] = system: phosphorylation of ERK, KRAS G12C in NCI-H358 cells; assay: pERK inhibition assay, G12C; type: cell-based, human; details: Homo sapiens; NCI-H358, 4 hours of incubation
How it was run: (§3)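 NCI-H358 (G12C), AGS (G12D) and SW620 (G12V) cells were seeded overnight at 30,000, 20,000 and 30,000 cells/well, respectively. They were then treated 4 h with compound (0.5% DMSO final), fixed, and methanol-permeabilized. pERK was detected by in-cell ELISA (anti-pERK/HRP, TMB, OD450); IC50 from a 4-parameter sigmoidal fit.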

[7] = system: phosphorylation of ERK, KRAS G12D in AGS cells; assay: pERK inhibition assay, G12D; type: cell-based, human; details: Homo sapiens, 4 hours of incubation
How it was run: as §3

[8] = system: phosphorylation of ERK, KRAS G12V in SW620; assay: pERK inhibition assay, G12V; type: cell-based, human; details: Homo sapiens, SW-620; SW620, 4 hours of incubation
How it was run: as §3

Row | IC50 [1] [µM] | IC50 (AGS cells (KRAS G12D)) [µM] | IC50 (SW620 cells (KRAS G12V)) [µM] | IC50 (KRAS G12C-BRAF complex [2]) [µM] | IC50 (KRAS G12C-BRAF complex [3]) [µM] | IC50 [4] [µM] | IC50 [5] [µM] | IC50 [6] [µM] | IC50 [7] [µM] | IC50 [8] [µM] | SMILES
1 | 0.078 | 0.876 | > 5 | 0.12 | > 10 | 1.91 | 1.48 | 0.048 | 0.152 | 0.065 | CO[C@@H](C)c1ncc(N2CCN(C)CC2)cc1-c1c2c3cc(c(F)cc3n1CC(F)(F)F)-c1csc(n1)C[C@H](NC(=O)[C@H](C(C)C)N(C)C(=O)[C@H]1CC[C@@H](C#CC(F)(F)F)CC1)C(=O)N1CCC[C@H](N1)C(=O)OCC(C)(C)C2 (atropisomer, axis not shown; (M)) [Example 10, cis-N-[(1S)-1-[[(7S,13S)-24-fluoro-(20M)-20-[2-[(1S)-1-methoxyethyl]-5-(4-methylpiperazin-1-yl)-3-pyridyl]-17,17-dimethyl-8,14-dioxo-21-(2,2,2-trifluoroethyl)-15-oxa-4-thia-9,21,27,28-tetrazapentacyclo[17.5.2.1^2,5.1^9,13.0^22,26]octacosa-1(25),2,5(28),19,22(26),23-hexaen-7-yl]carbamoyl]-2-methyl-propyl]-N-methyl-4-(3,3,3-trifluoroprop-1-ynyl)cyclohexanecarboxamide]
2 | 0.166 | 3.34 | 0.653 | 0.075 | 0.24 | > 10 | 2.25 | 0.221 | > 10 | 0.198 | CO[C@@H](C)c1ncc(N2CCN(C)CC2)cc1-c1c2c3cc(c(F)cc3n1CC(F)(F)F)-c1csc(n1)C[C@H](NC(=O)[C@@H](CC(=O)N1CC(C#CC(F)(F)F)C1)C(C)C)C(=O)N1CCC[C@H](N1)C(=O)OCC(C)(C)C2 [Example 19, (2S)—N-[(7S,13S)-24-fluoro-(20M)-20-[2-[(1S)-1-methoxyethyl]-5-(4-methylpiperazin-1-yl)-3-pyridyl]-17,17-dimethyl-8,14-dioxo-21-(2,2,2-trifluoroethyl)-15-oxa-4-thia-9,21,27,28-tetrazapentacyclo[17.5.2.1^2,5.1^9,13.0^22,26]octacosa-1(25),2,5(28),19,22(26),23-hexaen-7-yl]-2-isopropyl-4-oxo-4-[3-(3,3,3-trifluoroprop-1-ynyl)azetidin-1-yl]butanamide]
3 | 0.027 | > 10 | 0.04 | 0.081 | 3.35 | > 10 | > 10 | 0.035 | 1.1 | 0.063 | CO[C@@H](C)c1ncc(N2CCN(C)CC2)cc1-c1c2c3cc(c(F)cc3n1CC(F)(F)F)-c1csc(n1)C[C@H](NC(=O)[C@H](C(C)C)N(C)C(=O)[C@H]1C[C@H](C#CC(F)(F)F)C1)C(=O)N1CCC[C@H](N1)C(=O)OCC(C)(C)C2 (atropisomer, axis not shown; (M)) [Example 1, trans-N-[(1S)-1-[[(7S,13S)-24-fluoro-(20M)-20-[2-[(1S)-1-methoxyethyl]-5-(4-methylpiperazin-1-yl)-3-pyridyl]-17,17-dimethyl-8,14-dioxo-21-(2,2,2-trifluoroethyl)-15-oxa-4-thia-9,21,27,28-tetrazapentacyclo[17.5.2.1^2,5.1^9,13.0^22,26]octacosa-1(25),2,5(28),19,22(26),23-hexaen-7-yl]carbamoyl]-2-methyl-propyl]-N-methyl-3-(3,3,3-trifluoroprop-1-ynyl)cyclobutanecarboxamide]
